Experiments:
[1] = Log D7.4 measurements (octanol/PBS partition); format: physicochemical; details: octanol/PBS pH 7.4
Experimental: Log D7.4 Measurements. Log D measurements were conducted in technical triplicate and 5 experimental replicates. Samples at a known concentration (n=3) were added to Eppendorf tubes containing PBS (pH=7.4, 500 μL) and octanol (500 μL). The Eppendorf tubes were each vortexed for 30 seconds and subsequently subjected to microcentrifuge for 1 minute. Then the PBS and octanol layers were pipetted into a clear 96-well plate. The absorbance values were taken using a SpectraMax M2 plate reader. The log of (dye absorbance in octanol/dye absorbance in PBS) was calculated and averaged across different concentrations to generate the log D7.4.

[2] = chloroform; cited from earlier work
[3] = Photophysical characterization; format: physicochemical; details: for ε / λabs / λem: 3:7 v/v MeCN:PBS (pH=7.4); for PABF: PA Brightness Factor; for Φ: relative to dimethoxy aza-BODIPY
Experimental: Photophysical Characterization. Extinction coefficients and fluorescence quantum yields were acquired in experimental triplicates. Extinction coefficients were measured by performing serial dilutions of the compounds in 3:7 v/v MeCN:PBS (pH=7.4) within the linear range (absorbance values between 0.05-1.5). Reported fluorescence quantum yields are relative quantum yields compared to dimethoxy aza-BODIPY (Φ=0.36, chloroform). The compounds were titrated into acetonitrile or 3:7 MeCN/PBS (pH=7.4) such that their absorbance values were kept below 0.1 to prevent secondary absorbance events. The refractive index of 3:7 v/v MeCN:PBS (pH=7.4) was measured to be 1.343. Characterization of mvpCu and t-mvpCu were conducted in 1:1 v/v DMF:HEPES (50 mM, pH=7.4).

[4] = test system: 4T1 orthotopic breast cancer; assay: In vivo PA imaging with mvGlu-AB2; set-up: species or system BALB/c mice; details: 6 hr, spectral unmixing
Experimental: In Vivo Imaging. Before all imaging, hair on the bottom half of mice were removed via an electric razor and depilatory cream. In both FL and PA imaging, a background scan was taken of each mouse before injection. For PA imaging experiments, mice were allowed to equilibrate in the water tank for 10 min, and all scans were collected on H2O mode at 34° C. PA Imaging with mvGlu-AB2. 4T1 cells were trypsinized, neutralized with growth media, and counted on a Countess II FL Cell Counter (Invitrogen, Thermo Fisher Scientific). Cells were spun down, media was aspirated, and a solution was made in 1:1 serum-free RPMI media to Geltrex™ LDEV-Free, hESC-Qualified, Reduced Growth Factor Basement Membrane Matrix. Mice were injected in the mammary fat pad with 250,000 cells (50 μL) of the cell solution. Tumors grew for around 1.5-2 weeks and the mice were imaged once tumors reached 100 mm^3. mvGluAB-2 was reconstituted in 0.9% saline (5% DMSO) and injected retroorbitally. PA images were taken at timepoints=0 and 6 hours in 5 nm increments from 660-700 nm. Images were spectrally unmixed from hemoglobin, deoxyhemoglobin, and melanin (n=4).

4T1 cells = assay: MTT cytotoxicity assay; format: cell-based, murine; details: 4T1, up to 15 μM, 6-hour incubation
Experimental: (§1) MTT Cytotoxicity Assay. A 96-well plate was seeded with 30,000 cells per well and incubated at 37° C. with 5% CO2 for 24-48 hours (˜70% confluent). The media was removed and replaced with fresh serum-free medium (200 μL) containing vehicle control (DMSO) or dye (4, 6, 10, or 15 μM). After 4 hours, the media was removed and replaced with a 20:1 mixture of PBS and (3-(4,5-dimethylthiazol-2-yl)-2,5-diphenyl-tetrazolium bromide (MTT, 5 mg/mL stock in PBS). The cells were incubated for 2 hours under the same conditions, and then the media was removed, replaced with DMSO (200 μL), and the absorbance of each well was recorded at 555 nm on a SpectraMax M2 plate reader. Percent viability was calculated relative to the vehicle control (n=8).

[5] = test system: A549 human lung cancer cells; assay: Cellular uptake studies (epifluorescence imaging); format: cell-based
Experimental: Cell Culture. A549 lung cancer cells and 4T1 murine breast cancer cells were acquired from ATCC. A549 cells were cultured in Ham's F-12K Medium containing 10% FBS and 1% penicillin streptomycin solution, and 4T1 cells were cultured in RPMI-1640 Medium containing 10% FBS and 1% penicillin streptomycin solution. Cells were incubated at 37° C. with 5% CO2. Experiments were performed in 8-well plates (Nuc Lab-Tek Chambered Coverglass, Thermo Scientific) or 96-well plates (Nuclon Delta Surface Flat Bottom, Thermo Scientific).
Cellular Uptake Studies. 8-well borosilicate plates were prepared with poly-L-Lysine coating and seeded with 50,000 cells per well and incubated at 37° C. with 5% CO2 for 24 hours (˜60% confluent). Serum-free media containing mvGlu-AB2 (2 μM), 15 mM Glucose, mvGlu-AB2 (2 μM)+15 mM Glucose, L-mvGlu-AB2 (2 μM), dimethoxy aza-BODIPY (2 μM), or vehicle (DMSO) were prepared. Competition glucose wells were preincubated with 15 mM glucose in serum-free media for 30 minutes. […] The media was removed and replaced with PBS. Cells were imaged using an EVOS FL epifluorescence microscope with a Cy7 filter cube. Four experimental replicates and 3 technical replicates were taken.
Quantification of Cell Imaging Data. In FIJI (ImageJ), ROIs were drawn around representative cells and the integrated density (area×mean gray value) was measured. The total cell fluorescence was calculated by subtracting the integrated density of the cell by the background integrated fluorescence. Technical replicates (n=3) in each well were quantified as the average of 3 cells. Values are reported as the average (+SD) of […] (n=4). Colocalization Studies with mvGlu-AB2. 8-well borosilicate plates were prepared with poly-L-Lysine coating and seeded with 45,000 cells per well and incubated at 37° C. with 5% CO2 for 24 hours (˜60% confluent). Serum-free media containing mvGlu-AB2 (1 μM) was prepared. Cells were incubated for 30 minutes with mvGlu-AB2. The cells were washed 1× with PBS and incubated with the relevant organelle tracker according to the manufacturer recommended protocol. Following incubation with tracker, the cells were washed 1× with PBS. Cells were imaged using an EVOS FL epifluorescence microscope. Lysotracker® Green and Mitotracker® Green were imaged using a GFP filter cube, DAPI was imaged using a DAPI filter cube, and mvGlu-AB2 was image with a Cy7 filter cube. Four experimental replicates and 3 technical replicates were taken.

A549 cells = assay: MTT cytotoxicity assay; format: cell-based, human; details: A549, up to 15 μM, 6-hour incubation
Experimental: as §1

[6] = test system: 4T1 orthotopic breast cancer; assay: In vivo fluorescence imaging of tumor-bearing mice; set-up: species or system BALB/c mice; details: for fluorescence signal enhancement of the tumor site relative to initial background scan: 1.2 mg/kg retroorbital
Experimental: In Vivo Imaging. Before all imaging, hair on the bottom half of mice were removed via an electric razor and depilatory cream. In both FL and PA imaging, a background scan was taken of each mouse before injection. For PA imaging experiments, mice were allowed to equilibrate in the water tank for 10 min, and all scans were collected on H2O mode at 34° C.
Fluorescence Imaging with mvGlu-AB2 and mvGlu-AB3. 4T1 cells were trypsinized, neutralized with growth media, and counted on a Countess II FL Cell Counter (Invitrogen, Thermo Fisher Scientific). Cells were spun down, media was aspirated, and a solution was made in 1:1 serum-free RPMI media to VitroGel® hydrogel. Mice were injected in the mammary fat pad with 300,000 cells (50 μL) of the cell solution. Tumors grew for around 1.5-2 weeks and the mice were imaged once tumors reached 100 mm^3. Dyes (1.2 mg/kg) were dissolved in 0.9% saline (5% DMSO) and injected retroorbitally. Mice were imaged using the CRi Maestro In-Vivo Fluorescence Imaging System at timepoints=0, 6, 8, 12, 16, 24, and 48 hours. Excitation occurred at 680 nm, and light was collected from 690-850 nm (n=3).

Compound | logD7.4 ([1]; Table 2) | logD7.4 [1] | extinction coefficient ε [3] | ε ([3]; Table 1b) | λabs ([3]; Table 1b) | λem ([3]; Table 1b) | PABF ([3]; Table 1b) | Φ ([3]; Table 1b) | ε ([3]; Table 2) | λabs ([3]; Table 2) | λem ([3]; Table 2) | PABF ([3]; Table 2) | Φ ([3]; Table 2) | further results
COc1ccc(C2=[N+]3C(=Nc4c(-c5ccccc5)cc(-c5ccc(OC)cc5)n4[B-]3(F)F)C(c3ccccc3)=C2)cc1 [AB-OMe2, reference compound] | 2.51 ± 0.92 | 2.51±0.92 | 3000 M⁻¹ cm⁻¹ | 3400 M/cm | 689 nm | 710 nm | 0.34 ×10^4 | 0.014 | 3400 M/cm | 689 nm | 710 nm | 0.34 × 10^4 | 0.014 | fluorescence quantum yield Φ of reference standard [2]: 0.36
COc1ccc(-c2cc(-c3ccccc3)c3n2[B-](OC)(OC)[N+]2=C(c4ccc(OCc5cn(C(COC6OC(CO)C(O)C(O)C6O)COC6OC(CO)C(O)C(O)C6O)nn5)cc4)C=C(c4ccccc4)C2=N3)cc1 (centres unmarked) [mvGlu-AB1] | 0.75 ± 0.02 | 0.75±0.02 |  | 18000 M/cm | 675 nm | 710 nm | 1.6 ×10^4 | 0.10 | 18000 M/cm | 675 nm | 710 nm | 1.6 × 10^4 | 0.10 | 
CO[B-]1(OC)n2c(-c3ccc(OCc4cn(C(COC5OC(CO)C(O)C(O)C5O)COC5OC(CO)C(O)C(O)C5O)nn4)cc3)cc(-c3ccccc3)c2N=C2C(c3ccccc3)=CC(c3ccc(OCc4cn(C(COC5OC(CO)C(O)C(O)C5O)COC5OC(CO)C(O)C(O)C5O)nn4)cc3)=[N+]21 (centres unmarked) [mvGlu-AB2] | −1.12 ± 0.16 | −1.12±0.16 | 26000 M⁻¹ cm⁻¹ | 26000 M/cm | 679 nm | 710 nm | 2.1 ×10^4 | 0.19 | 26000 M/cm | 679 nm | 710 nm | 2.1 × 10^4 | 0.19 | PA signal difference of tumor prior to and after injection [4]: 4.1 fold; cell viability (MTT) (4T1 cells): no loss in cell viability; low dye concentration at which a clear fluorescent signature was apparent ([5]; A549): 50 nM; brighter than cells treated with l-mvGlu isomer ([5]; A549, 2 μM): 3 fold; signal intensity higher when glucose was absent ([5]; A549, dye 2 μM, vs pre-incubation with glucose 15 mM): 2 fold; fluorescence signal intensity brighter than AB-OMe2-treated cells ([5]; A549, imaged after 20 minutes): > 1000 fold; cell viability (MTT) (A549 cells): no loss in cell viability; fluorescence signal enhancement of the tumor site relative to initial background scan ([6]; after 8 hours): ~2 fold; ε higher than AB-OMe2 ([3]; ratio to AB-OMe2): 8.7 fold
COc1ccc(C2=[N+]3C(=Nc4c(-c5ccc(OCc6cn(C(COC7OC(CO)C(O)C(O)C7O)COC7OC(CO)C(O)C(O)C7O)nn6)cc5)cc(-c5ccc(OC)cc5)n4[B-]3(OC)OC)C(c3ccc(OCc4cn(C(COC5OC(CO)C(O)C(O)C5O)COC5OC(CO)C(O)C(O)C5O)nn4)cc3)=C2)cc1 (centres unmarked) [mvGlu-AB3] | −0.71 ± 0.11 | −0.71±0.11 |  | 24000 M/cm | 681 nm | 712 nm | 1.7 ×10^4 | 0.31 | 24000 M/cm | 681 nm | 712 nm | 1.7 × 10^4 | 0.31 | in vivo imaging results compared with mvGlu-AB2 ([6]; FIGS. 17-18): comparable; fluorescence signal enhancement of the tumor site relative to initial background scan ([6]; after 12 hours): ~2 fold
